Experimental data: patent US4268630A, “Microbiological production of ketones from C3 -C6 alkanes” (priority 1979, dated 1981)

What was measured:
[1] = system: cell-free secondary alcohol dehydrogenase (SADH) system; test: Cofactor requirement of cell-free soluble extracts oxidizing 2-butanol; assay type: biochemical
Method: To prepare the cell-free secondary alcohol dehydrogenase (SADH) system, the washed cells were disrupted with a Wave Energy Ultrasonic Oscillator, Model W201 (Wave Energy System, Inc., Newtown, Pa.) and centrifuged at 20,000× g. for 30 minutes. […] The enzyme activity was measured with a fluorescence spectrophotometer (Perkin Elmer, Model MPF 44A) by following the formation of reduced NAD (EX 340 nm, Em 460 nm). The formation of reduced NAD was also followed with an absorption spectrophotometer at 340 nm. The assay system (3 ml.) contained: potassium phosphate buffer pH 7.0; 150 μmol.; NAD 1 μmol.; a given amount of enzyme preparation; and secondary alcohol 10 μmol. The reaction was started by the addition of substrate. One unit of enzyme activity represents the reduction of one μmole NAD per minute. Protein concentrations were determined by the Lowry method (J. Biol. Chem., 193: 255-275 (1951)).

[2] = system: secondary alcohol dehydrogenase; test: Activity of purified yeast-derived secondary alcohol dehydrogenase; assay type: biochemical, Pichia sp. NRRL Y-11,328; details: for ability to act as electron acceptor/carrier: purified enzyme
[3] = system: Methylomonas methanica SI (NRRL B-11,199); test: Oxidation of n-alkanes to methyl ketones by resting cell suspension; assay type: cell-based; details: cell suspension grown on methane
Method: (§1) The pH of the nutrient medium was adjusted to 7.0 by the addition of acid or base and 50 ml. samples of the nutrient medium were charged into a plurality of 300 ml. shaker flasks. […] The isolates had been maintained on methanol (0.4% V/V) agar plates or on agar plates under an atmosphere of methane and air having a 1:1 V/V gas ratio which had been transferred every two weeks. For growth on methanol, the medium was supplemented with 0.4% methanol. For growth on methane, the gaseous phase of the inoculated flasks was replaced with a gas mixture comprised on methane and air having a ratio of 1:1 on a V/V basis. The inoculated flasks were sealed air-tight and were incubated on a rotary shaker of orbital radius 2.5 cm. at 250 rpm and at 30° C. for two days until turbidity in the medium had developed. The cells were harvested by centrifugation at 10,000×g. at 4° C. for 30 minutes. The cell pellet was washed twice with a 0.05 M phosphate buffer at a pH of 7.0 (containing 0.02 M MgCl2). The washed cells were then suspended in a 0.05 M phosphate buffer at pH 7.0.
(§2) A 0.5 ml. sample of each washed cell suspension (2 mg. cells) was put into 10 ml. vials at 4° C. which were sealed with a rubber cap. The gaseous phase of the vials was removed with vacuum and then was replaced with a gas mixture of the substrate reactant (i.e., alkane or secondary alcohol) and oxygen at a 1:1 V/V ratio. (In the case of a liquid substrate, i.e., secondary alcohol, 10 μl of the substrate was put in the 10 ml. vials). The vials were then incubated at 30° C. on a rotary shaker at 300 rpm. Samples of product (1-3 μl) were withdrawn periodically with a microsyringe and the products were analyzed by gas chromatography (ionization flame detector column).

[4] = system: Methylobacterium organophilum XX; test: as above; assay type: cell-based; details: cell suspension grown on methane
Method: as §1, §2

[5] = system: Methylocystis parvus OBBP (NRRL B-11,198); test: as above; assay type: cell-based; details: cell suspension grown on methane
Method: as §1, §2

[6] = system: Methylosinus trichosporium OB3b (NRRL B-11,196); test: as above; assay type: cell-based; details: cell suspension grown on methane
Method: as §1, §2

[7] = system: Methylobacter capsulatus Y (NRRL B-11,201); test: as above; assay type: cell-based; details: cell suspension grown on methane
Method: as §1, §2

[8] = system: Methylococcus capsulatus Texas (ATCC 19069); test: as above; assay type: cell-based; details: cell suspension grown on methane
Method: The pH of the nutrient medium was adjusted to 7.0 by the addition of acid or base and 50 ml. samples of the nutrient medium were charged into a plurality of 300 ml. shaker flasks. The shaker flasks were inoculated with an inoculating loop of cells from an agar plate containing homogeneous colonies of the microorganisms on the plate (the purity of the isolates was confirmed by microscopic examination). The isolates had been maintained on methanol (0.4% V/V) agar plates or on agar plates under an atmosphere of methane and air having a 1:1 V/V gas ratio which had been transferred every two weeks. For growth on methanol, the medium was supplemented with 0.4% methanol. For growth on methane, the gaseous phase of the inoculated flasks was replaced with a gas mixture comprised on methane and air having a ratio of 1:1 on a V/V basis. The inoculated flasks were sealed air-tight and were incubated on a rotary shaker of orbital radius 2.5 cm. at 250 rpm and at 30° C. for two days until turbidity in the medium had developed. The cells were harvested by centrifugation at 10,000×g. at 4° C. for 30 minutes. The cell pellet was washed twice with a 0.05 M phosphate buffer at a pH of 7.0 (containing 0.02 M MgCl2). The washed cells were then suspended in a 0.05 M phosphate buffer at pH 7.0.
as §2, with “The vials were then incubated at 30° C. on a rotary shaker at 300 rpm.” left out

[9] = system: Methylobacterium sp. (CRL-26, NRRL-B-11,208); test: Conversion of n-alkanes to secondary alcohols by cell suspensions; assay type: cell-based; details: growth substrate Methane
Text: (§3) Both cell suspensions (particulate fraction) and cell-free particulate fraction of methane-grown methylotroph microorganisms are capable of catalyzing the conversion of C3 -C6 n-alkanes to the corresponding alcohols including secondary alcohols. The conditions for preparing the cell suspensions or the cell-free particulate fractions from methane-grown methylotroph microorganisms is the same as described above. The cell-free particulate fraction requires the presence of oxygen and NADH as an electron donor. […] Tables XVI and XVII show the conversion of C3 -C6 n-alkanes to the corresponding secondary alcohols using cell suspensions and cell-free particulate fractions, respectively, of methane-grown methylotroph microorganisms.

[10] = system: Methylosinus trichosporium (OB3b, NRRL-B-11,196); test: as above; assay type: cell-based; details: growth substrate Methane
Text: as §3

[11] = system: Methylococcus capsulatus (Texas, ATCC 19,069); test: as above; assay type: cell-based; details: growth substrate Methane
Text: as §3

[12] = system: Methylosinus sporium 5 (NRRL B-11,197); test: Oxidation of n-alkanes to methyl ketones by resting cell suspension; assay type: cell-based; details: cell suspension grown on methane
Method: as §1, §2

[13] = system: Methylomonas albus BG8 (NRRL B-11,200); test: as above; assay type: cell-based; details: cell suspension grown on methane
Method: as §1, §2

[14] = system: Methylosinus trichosporium OB3b NRRL B-11,196; test: Conversion of n-alkanes to oxidation products by cell suspensions; assay type: cell-based; details: methane-grown cell suspension, pH 7.0
Method: (§11) ^(a) Cell-suspensions of methanegrown methylotroph microorganisms
(§12) indicated in 0.15 M phosphate buffer, pH 7.0 incubated in the alkanes as
(§13) indicated at 3° C. The oxidation products were determined by g.l.c

[15] = system: Methylococcus capsulatus CRL M1 NRRL B-11,219; test: as above; assay type: cell-based; details: methane-grown cell suspension, pH 7.0
Method: as §11, §12, §13

[16] = system: particulate P(40) fraction of Methylosinus trichosporium (OB3b, NRRL-B-11,196); test: Hydroxylation of n-alkanes to secondary alcohols by particulate P(40) fraction; assay type: biochemical
Text: as §3
(§4) ^(a) Particulate P(40) fraction was prepared as follows:
(§5) Cellsuspensions at 4° C. were disintegrated through a French
(§6) Pressure cell and centrifuged at 4000 × g. for 15 min. to remove
(§7) unbroken bacteria. The supernatant solution was then centrifuged at 40,00
(§8) × g. for 30 min. at 4° C. yielding the particulate P(40) and
(§9) soluble S(40) fractions. The products were identified by gas
(§10) chromatography and cochromatography with authentic standard.

[17] = target: particulate P(40) fraction of Methylosinus sp. (CRL-15, NRRL-B-11,202) (Methylosinus trichosporium, UniProt Q50541+Q9KX50+Q9KX51); test: as above; assay type: biochemical
Text: as §3, §4, §5, §6, §7, §8, §9, §10

[18] = system: particulate P(40) fraction of Methylobacterium sp. (CRL-26, NRRL-B-11,222); test: as above; assay type: biochemical
Text: as §3, §4, §5, §6, §7, §8, §9, §10

[19] = system: particulate P(40) fraction of Methylococcus capsulatus (Texas, ATCC 19,069); test: as above; assay type: biochemical
Text: as §3, §4, §5, §6, §7, §8, §9, §10

[20] = system: Methylomonas sp. (CRL-17, NRRL-B-11,209); test: Conversion of n-alkanes to secondary alcohols by cell suspensions; assay type: cell-based; details: growth substrate Methane
Text: as §3

[21] = system: Methylosinus sp. (CRL-15, NRRL-B-11,202); test: as above; assay type: cell-based; details: growth substrate Methane
Text: as §3

[22] = system: Methylobacter capsulatus (Y, NRRL-B-11,201); test: as above; assay type: cell-based; details: growth substrate Methane
Text: as §3

particulate P(40) fraction of Methylosinus sp. (CRL-15, NRRL-B-11,202), sequence (Q9KX50 40-431): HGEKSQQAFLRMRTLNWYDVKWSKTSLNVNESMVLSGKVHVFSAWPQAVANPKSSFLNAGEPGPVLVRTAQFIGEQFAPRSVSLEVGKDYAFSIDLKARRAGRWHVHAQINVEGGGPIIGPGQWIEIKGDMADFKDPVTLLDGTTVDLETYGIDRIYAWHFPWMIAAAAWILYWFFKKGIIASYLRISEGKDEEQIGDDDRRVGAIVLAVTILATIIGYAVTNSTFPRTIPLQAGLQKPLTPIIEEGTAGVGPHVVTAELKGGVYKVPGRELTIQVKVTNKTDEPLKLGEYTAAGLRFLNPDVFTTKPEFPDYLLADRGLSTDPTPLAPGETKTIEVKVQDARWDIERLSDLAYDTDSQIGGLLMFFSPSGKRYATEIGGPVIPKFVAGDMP
particulate P(40) fraction of Methylosinus sp. (CRL-15, NRRL-B-11,202), sequence (Q50541 1-252): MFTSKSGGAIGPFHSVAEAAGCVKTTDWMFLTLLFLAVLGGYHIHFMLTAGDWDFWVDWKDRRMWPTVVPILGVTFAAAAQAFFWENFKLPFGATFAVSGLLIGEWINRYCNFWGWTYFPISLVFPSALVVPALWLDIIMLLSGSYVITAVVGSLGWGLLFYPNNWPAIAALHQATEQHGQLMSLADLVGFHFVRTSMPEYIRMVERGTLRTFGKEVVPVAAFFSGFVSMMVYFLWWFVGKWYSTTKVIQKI
particulate P(40) fraction of Methylosinus sp. (CRL-15, NRRL-B-11,202), sequence (Q9KX51 1-256): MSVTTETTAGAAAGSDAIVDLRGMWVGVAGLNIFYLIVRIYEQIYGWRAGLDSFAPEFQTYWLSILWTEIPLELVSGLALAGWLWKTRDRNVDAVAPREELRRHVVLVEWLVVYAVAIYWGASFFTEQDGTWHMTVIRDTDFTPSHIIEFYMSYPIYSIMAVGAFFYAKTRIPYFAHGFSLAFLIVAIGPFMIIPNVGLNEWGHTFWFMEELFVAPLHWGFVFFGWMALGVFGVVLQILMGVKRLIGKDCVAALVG

Compound	effectiveness as cofactor for oxidation of 2-butanol [1]	ability to act as electron acceptor/carrier [2]	Conversion Rates, n-alkane to methyl ketone [3] [μmoles/hr/mg protein]	Conversion Rates, n-alkane to methyl ketone [4] [μmoles/hr/mg protein]	Conversion Rates, n-alkane to methyl ketone [5] [μmoles/hr/mg protein]	Conversion Rates, n-alkane to methyl ketone [6] [μmoles/hr/mg protein]	Conversion Rates, n-alkane to methyl ketone [7] [μmoles/hr/mg protein]	Conversion Rates, n-alkane to methyl ketone [8] [μmoles/hr/mg protein]	Conversion Rate, n-alkane to secondary alcohol [9] [μmoles/hr/^5 mg. protein]	Conversion Rate, n-alkane to secondary alcohol [10] [μmoles/hr/^5 mg. protein]	Conversion Rate, n-alkane to secondary alcohol [11] [μmoles/hr/^5 mg. protein]	other results
O=C1C(Cl)=CC(=Nc2ccc(O)cc2)C=C1Cl [dichlorophenol iodophenol, 2,6-dichlorophenol indophenol, reference compound]	not effective	could not act as electron carrier										
C[n+]1c2ccccc2nc2ccccc21 [phenazine methosulfate, reference compound]	not effective	could not act as electron carrier										
CCCCC [n-Pentane, n-pentane]			0.28	0.58	0.51	0.72	0.63	0.42	0.01	0.06	0.032	
Cc1cc2nc3c(=O)[nH]c(=O)nc-3n(C[C@H](O)[C@H](O)[C@H](O)COP(=O)(O)OP(=O)(O)OC[C@H]3O[C@@H](n4cnc5c(N)ncnc54)[C@H](O)[C@@H]3O)c2cc1C [FAD, flavin adenine dinucleotide, reference compound]	not effective	could not act as electron carrier										
CCCCCC [n-Hexane, n-hexane]			0.02	0.09	0.04	0.05	0.07	0.09	0.007	0.01	0.01	
CCCC [n-Butane, n-butane]			0.30	2.0	1.0	1.2	1.1	0.52	0.80	1.5	1.0	Conversion Rates, n-alkane to methyl ketone [12]: 0.58 μmoles/hr/mg protein; Conversion Rates, n-alkane to methyl ketone [13]: 0.60 μmoles/hr/mg protein; Conversion Rate to product 1-Butanol [14]: 0.3 μmoles/hr./mg./protein; Conversion Rate to product 2-Butanol [14]: 0.4 μmoles/hr./mg./protein; Conversion Rate to product 2-Butanone [14]: 0.1 μmoles/hr./mg./protein; Conversion Rate to product n-butanol [14]: 0.1 μmoles/hr./mg./protein; Conversion Rate to product 1-Butanol [15]: 0.4 μmoles/hr./mg./protein; Conversion Rate to product 2-Butanol [15]: 0.5 μmoles/hr./mg./protein; Conversion Rate to product 2-Butanone [15]: 0.2 μmoles/hr./mg./protein; Conversion Rate to product n-butanol [15]: 0.2 μmoles/hr./mg./protein; Conversion Rate, n-alkane to secondary alcohol [16]: 0.79 μmoles/hr/2.0mg. of protein; Conversion Rate, n-alkane to secondary alcohol [17]: 0.89 μmoles/hr/2.0mg. of protein; Conversion Rate, n-alkane to secondary alcohol [18]: 0.61 μmoles/hr/2.0mg. of protein; Conversion Rate, n-alkane to secondary alcohol [19]: 0.92 μmoles/hr/2.0mg. of protein; Conversion Rate, n-alkane to secondary alcohol [20]: 1.2 μmoles/hr/^5 mg. protein; Conversion Rate, n-alkane to secondary alcohol [21]: 1.2 μmoles/hr/^5 mg. protein; Conversion Rate, n-alkane to secondary alcohol [22]: 0.09 μmoles/hr/^5 mg. protein
N[C@@H](CCC(=O)N[C@@H](CS)C(=O)NCC(=O)O)C(=O)O [GSH, glutathione, reference compound]	not effective											inhibition of secondary alcohol dehydrogenase activity (in words) ([2]; primary alcohols tested at 10^-3 M): strongly inhibited
NC(=O)c1ccc[n+]([C@@H]2O[C@H](COP(=O)([O-])OP(=O)(O)OC[C@H]3O[C@@H](n4cnc5c(N)ncnc54)[C@H](OP(=O)(O)O)[C@@H]3O)[C@@H](O)[C@H]2O)c1 [NADP, reference compound]	not effective	could not act as electron carrier										
